Laboratory results: patent US10196401B2, “Spiro-lactam NMDA receptor modulators and uses thereof” (Aptinyx Inc., priority 2016, dated 2019)
Read-outs that look alike come from different tables or passages of the source.

Experiments:
[1] = Microsomal stability, human; format: in vitro ADME
Description: (§1) Microsomal and plasma stability of Compound A was investigated. The following table indicates the percent of Compound A remaining after 60 minutes.
(§2) Microsomal and plasma stability of Compound B was investigated. The following table indicates the percent of Compound B remaining after 60 minutes.

Sprague Dawley rats = assay: Bennett model of mechanical analgesia (paw withdrawal threshold); format: in vivo, rat; details: single dose of 10 mg/kg PO; 1 hr, 24 hrs and 1 week post-dosing
Description: Bennett G J, Xie Y K, “A peripheral mononeuropathy in rat that produces disorders of pain sensation like those seen in man,” Pain 33:87-107, 1988. […] Vehicle animals receive the surgery and then receive vehicle rather than test compound. Animals were tested 1 hr, 24 h and 1 wk post-test compound or vehicle administration.
Male 2-3 month old Sprague Dawley rats were used. Harlan was the supplier for all studies. Rats were housed in Lucite cages with aspen wood chip bedding, maintained on a 12:12 light:dark cycle (lights on at 5 AM), and given ad libitum access to Purina lab chow (USA) and tap water throughout the study.
Rats were anesthetized using inhaled isoflurane (2.5%). Spared nerve injury surgery was performed as previously described (Bennett and Xie, 1988). An incision (˜1.5 cm in length) was made with a scalpel blade dorsally through skin on the right hindlimb, parallel and posterior to femur. Using a small pointed hemostat, the biceps femoris and gluteus superficialis muscles were separated. Using curved blunt forceps, the common sciatic nerve was isolated and exposed. For the mechanical analgesia studies, the whole sciatic nerve was ligated. Using hemostats/forceps and chromic gut (5-0), the nerve was loosely ligated with a square knot; 3 ligatures, 1 mm apart were placed on the nerve. […] For the thermal analgesia studies, the common peroneal and tibial branches of the sciatic nerve were ligated and cut, and the sural branch was spared. See Decosterd I, Woolf C J, “Spared nerve injury: an animal model of persistent peripheral neuropathic pain,” Pain 87:149-158, 2000. Testing occurred 1-2 weeks post-surgery.
During testing, rats were acclimated to the surface of a suspended wire mesh grid (1 cm×1 cm, with the wire being 0.3 cm in diameter) for 15-20 min. Starting from the smallest, each Von Frey filament was pressed perpendicularly to the plantar surface of the affected (ipsilateral) hindpaw until slightly bent and then held for 6 second. […]

Plasma stability, rat = format: in vitro ADME
Description: as §1, §2

NMDAR2A [2] = target: T1, NMDAR2A (Homo sapiens, UniProt Q12879); assay: Potentiation of [3H]MK-801 binding, NMDAR2A; parameters: species or system rat; details: for Conclusion / % 1 mM Glycine: NMDAR2A binding profile; for % 1 mM Glycine: relative to 1 mM glycine; for potentiation of [3H]MK-801 binding, subtype preference in words: NR2A, FIG. 2 / FIG. 6
Description: Assays were conducted as described by Moskal et al., “GLYX-13: a monoclonal antibody-derived peptide that acts as an N-rnethyl-D-aspartate receptor modulator,” Neuropharmacology, 49, 1077-87, 2005. The potentiation of [^3H]MK-801 binding (5 nrM; 22.5 Ci/mmol) to well washed rat cortical membranes (200 μg) was measured under non-equilibrium conditions (15 min @ 25° C.) in the presence of increasing concentrations of Compound A.
Assays were conducted as described above in Example 5, by Moskal et al. (2005).

[3] = Plasma protein binding, human; format: in vitro ADME; details: read-out: plasma protein binding (% bound) (converted)
Description: Unbound drug concentration in the brain was also investigated, and plasma protein binding assays were conducted. The following table (% bound) indicates results for Compound A.
Unbound drug concentration in the brain was also investigated, and plasma protein binding assays were conducted. The following table (% bound) indicates results for Compound B.

NMDAR2A [4] = target: T1, NMDAR2A; assay: Potentiation of [3H]MK-801 binding, NMDAR2A; parameters: species or system rat; details: NMDAR2A binding profile, wild-type
[5] = Bioavailability and CSF/brain/plasma distribution after PO dosing; format: in vivo, Sprague Dawley rats; details: for Kp / bioavailability: Sprague Dawley, rat, PO administration (Compound A 10 mg/kg); for bioavailability: plasma, read-out: Bioavailablity (% F); for oral bioavailability, in words / proportion able to get to the CSF and brain, in words: comparative statement, comparator not named
Description: The bioavailablity of Compound A was investigated following PO administration. CSF, brain and plasma samples were analyzed following dosing with compound A (10 mg/kg). The following table indicates the bioavailablity and CSF/plasma and brain/plasma ratios.
Sprague Dawley rats were dosed intravenously with 2 mg/kg of Compound A. A second group of Sprague Dawley rats was dosed per os with 10 mg/kg of compound A. Plasma samples were drawn over a 24 h period and analyzed for Compound A.
In another experiment, Sprague Dawley rats were dosed per os with 10 mg/kg of Compound A. Plasma, brain, and CSF samples were analyzed at various time points over a 24 hour period. […]

NMDAR2C = NMDAR2C (Homo sapiens, UniProt Q14957); assay: Potentiation of [3H]MK-801 binding, NMDAR2C; parameters: species or system rat; details: for % 1 mM Glycine: relative to 1 mM glycine
Plasma stability, human = format: in vitro ADME
Description: as §1, §2

NMDAR2B = NMDAR2B (Homo sapiens, UniProt Q13224); assay: Potentiation of [3H]MK-801 binding, NMDAR2B; parameters: species or system rat; details: for % 1 mM Glycine: relative to 1 mM glycine
[6] = CSF/plasma, read-out: CSF/plasma ratio
[7] = brain/plasma, read-out: Brain/plasma ratio

T1 sequence (Q12879 23-1464, species assumed, other chains not shown): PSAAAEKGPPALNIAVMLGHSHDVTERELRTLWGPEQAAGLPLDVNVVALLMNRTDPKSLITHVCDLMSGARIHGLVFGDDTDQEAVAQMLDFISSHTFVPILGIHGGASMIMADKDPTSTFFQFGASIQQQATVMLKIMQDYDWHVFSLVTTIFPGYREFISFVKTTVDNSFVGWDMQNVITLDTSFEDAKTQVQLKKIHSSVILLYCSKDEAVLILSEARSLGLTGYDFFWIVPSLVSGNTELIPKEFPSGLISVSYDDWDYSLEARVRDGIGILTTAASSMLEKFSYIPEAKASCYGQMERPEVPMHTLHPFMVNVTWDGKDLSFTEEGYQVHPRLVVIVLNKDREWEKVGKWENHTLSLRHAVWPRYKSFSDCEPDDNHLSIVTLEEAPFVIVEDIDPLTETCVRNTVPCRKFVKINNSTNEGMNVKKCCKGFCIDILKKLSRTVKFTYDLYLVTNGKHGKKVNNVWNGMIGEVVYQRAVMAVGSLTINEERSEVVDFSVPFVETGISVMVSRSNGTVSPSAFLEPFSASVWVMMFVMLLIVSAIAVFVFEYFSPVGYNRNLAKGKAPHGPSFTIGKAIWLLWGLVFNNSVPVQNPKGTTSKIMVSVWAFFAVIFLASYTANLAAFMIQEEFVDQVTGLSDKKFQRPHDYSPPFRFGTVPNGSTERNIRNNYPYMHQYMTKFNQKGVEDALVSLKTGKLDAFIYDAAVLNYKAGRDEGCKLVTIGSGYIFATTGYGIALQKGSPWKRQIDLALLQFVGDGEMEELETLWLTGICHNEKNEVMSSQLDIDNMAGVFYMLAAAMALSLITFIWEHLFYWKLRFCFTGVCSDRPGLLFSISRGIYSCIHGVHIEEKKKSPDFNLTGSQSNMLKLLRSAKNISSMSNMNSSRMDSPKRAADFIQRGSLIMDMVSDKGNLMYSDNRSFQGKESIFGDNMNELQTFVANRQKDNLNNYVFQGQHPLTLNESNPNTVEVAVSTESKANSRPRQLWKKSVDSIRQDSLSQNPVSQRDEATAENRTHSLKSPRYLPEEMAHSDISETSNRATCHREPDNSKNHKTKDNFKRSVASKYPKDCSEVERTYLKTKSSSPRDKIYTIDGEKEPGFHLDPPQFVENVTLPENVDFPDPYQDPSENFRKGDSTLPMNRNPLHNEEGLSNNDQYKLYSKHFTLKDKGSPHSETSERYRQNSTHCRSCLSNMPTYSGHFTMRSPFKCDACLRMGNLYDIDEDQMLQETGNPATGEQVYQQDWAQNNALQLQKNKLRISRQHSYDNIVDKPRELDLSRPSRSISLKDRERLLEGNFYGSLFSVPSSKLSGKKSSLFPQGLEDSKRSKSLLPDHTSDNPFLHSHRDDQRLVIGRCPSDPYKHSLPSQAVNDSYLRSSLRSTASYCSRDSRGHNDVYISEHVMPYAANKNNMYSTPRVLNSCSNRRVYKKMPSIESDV
Sequence of NMDAR2C (Q14957 20-1233, species assumed, other chains not shown): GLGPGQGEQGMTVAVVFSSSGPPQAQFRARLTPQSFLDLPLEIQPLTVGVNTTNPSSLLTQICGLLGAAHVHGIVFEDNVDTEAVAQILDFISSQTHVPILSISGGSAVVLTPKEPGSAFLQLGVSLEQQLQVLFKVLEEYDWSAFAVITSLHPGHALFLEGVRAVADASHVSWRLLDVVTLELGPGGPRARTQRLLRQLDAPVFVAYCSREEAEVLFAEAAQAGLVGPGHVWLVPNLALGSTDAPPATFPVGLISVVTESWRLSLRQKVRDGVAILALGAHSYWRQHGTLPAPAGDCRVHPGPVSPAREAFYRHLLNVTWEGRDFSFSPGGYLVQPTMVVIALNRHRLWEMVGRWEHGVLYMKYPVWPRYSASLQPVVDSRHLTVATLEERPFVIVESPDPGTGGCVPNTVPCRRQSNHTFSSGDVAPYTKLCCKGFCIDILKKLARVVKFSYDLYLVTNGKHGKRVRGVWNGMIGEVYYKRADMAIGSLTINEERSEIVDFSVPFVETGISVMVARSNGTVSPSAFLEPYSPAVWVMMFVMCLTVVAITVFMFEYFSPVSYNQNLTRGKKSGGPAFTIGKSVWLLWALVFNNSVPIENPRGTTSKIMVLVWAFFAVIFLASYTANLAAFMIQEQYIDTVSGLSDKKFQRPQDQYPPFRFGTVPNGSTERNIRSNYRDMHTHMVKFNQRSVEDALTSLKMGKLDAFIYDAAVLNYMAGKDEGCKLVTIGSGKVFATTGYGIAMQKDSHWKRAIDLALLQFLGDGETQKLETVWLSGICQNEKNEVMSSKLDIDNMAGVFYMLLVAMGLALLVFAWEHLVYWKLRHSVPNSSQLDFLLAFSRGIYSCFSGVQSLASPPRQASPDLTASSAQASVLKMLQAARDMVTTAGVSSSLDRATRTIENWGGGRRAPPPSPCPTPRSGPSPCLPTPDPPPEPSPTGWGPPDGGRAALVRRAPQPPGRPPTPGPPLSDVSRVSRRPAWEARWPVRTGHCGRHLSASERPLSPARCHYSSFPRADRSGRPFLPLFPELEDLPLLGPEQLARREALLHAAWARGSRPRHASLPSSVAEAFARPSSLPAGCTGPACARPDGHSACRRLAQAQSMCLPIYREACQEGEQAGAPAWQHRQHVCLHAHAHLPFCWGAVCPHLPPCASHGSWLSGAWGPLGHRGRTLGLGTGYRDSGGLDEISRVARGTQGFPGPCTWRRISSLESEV
Sequence of NMDAR2B (Q13224 27-1484, species assumed, other chains not shown): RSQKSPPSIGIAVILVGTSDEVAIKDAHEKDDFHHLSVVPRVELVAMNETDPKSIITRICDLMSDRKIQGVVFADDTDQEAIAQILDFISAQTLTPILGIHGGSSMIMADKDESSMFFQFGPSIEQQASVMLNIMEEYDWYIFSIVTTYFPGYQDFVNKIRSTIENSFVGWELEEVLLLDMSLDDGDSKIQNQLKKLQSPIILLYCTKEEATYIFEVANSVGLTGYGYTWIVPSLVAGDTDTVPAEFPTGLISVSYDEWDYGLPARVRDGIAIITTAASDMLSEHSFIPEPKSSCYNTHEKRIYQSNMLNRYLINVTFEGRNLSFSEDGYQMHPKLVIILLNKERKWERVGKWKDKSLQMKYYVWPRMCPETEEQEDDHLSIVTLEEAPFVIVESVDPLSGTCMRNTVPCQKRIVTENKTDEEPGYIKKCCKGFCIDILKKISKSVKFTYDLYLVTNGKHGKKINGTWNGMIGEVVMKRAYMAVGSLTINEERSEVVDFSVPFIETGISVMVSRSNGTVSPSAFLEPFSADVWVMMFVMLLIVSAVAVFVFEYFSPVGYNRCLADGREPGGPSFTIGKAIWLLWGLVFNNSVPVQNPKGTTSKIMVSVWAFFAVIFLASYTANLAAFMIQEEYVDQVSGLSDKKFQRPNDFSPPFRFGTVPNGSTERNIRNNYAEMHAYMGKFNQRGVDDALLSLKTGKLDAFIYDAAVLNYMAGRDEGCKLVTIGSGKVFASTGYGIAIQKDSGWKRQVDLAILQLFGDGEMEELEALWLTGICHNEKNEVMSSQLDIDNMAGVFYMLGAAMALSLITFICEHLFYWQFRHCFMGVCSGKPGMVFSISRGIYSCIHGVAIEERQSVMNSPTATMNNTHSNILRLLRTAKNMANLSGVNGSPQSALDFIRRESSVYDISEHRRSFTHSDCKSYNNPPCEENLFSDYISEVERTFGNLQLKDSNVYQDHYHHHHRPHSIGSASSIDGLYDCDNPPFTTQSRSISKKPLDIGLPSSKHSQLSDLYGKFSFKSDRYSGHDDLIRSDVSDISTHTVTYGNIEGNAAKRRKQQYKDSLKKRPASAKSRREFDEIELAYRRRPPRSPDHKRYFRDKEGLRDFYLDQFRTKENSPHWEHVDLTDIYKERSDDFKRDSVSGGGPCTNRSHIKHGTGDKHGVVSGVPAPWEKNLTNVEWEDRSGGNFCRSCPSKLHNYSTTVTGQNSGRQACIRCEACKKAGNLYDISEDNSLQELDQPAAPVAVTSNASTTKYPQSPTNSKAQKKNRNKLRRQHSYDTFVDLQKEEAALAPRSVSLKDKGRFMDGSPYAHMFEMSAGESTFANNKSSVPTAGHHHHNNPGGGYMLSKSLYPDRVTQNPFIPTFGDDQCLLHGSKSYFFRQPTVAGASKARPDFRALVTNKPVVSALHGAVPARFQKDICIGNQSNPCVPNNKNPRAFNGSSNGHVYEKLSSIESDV

Structure (SMILES)	Microsomal stability, percent remaining after 60 minutes [1] [%]	mechanical analgesic effect in the Bennett model (Sprague Dawley rats)	Plasma stability, percent remaining after 60 minutes (Plasma stability, rat) [%]	Conclusion (NMDAR2A [2])	% 1 mM Glycine (NMDAR2A [2]) [%]	potentiation of [3H]MK-801 binding, subtype preference in words (NMDAR2A [2])	fraction unbound [3]	EC50 (NMDAR2A [4]) [nM]	Kp [5, 6]	Kp [5, 7]	bioavailability [5] [%]	oral bioavailability, in words [5]	proportion able to get to the CSF and brain, in words [5]	Conclusion (NMDAR2C; NMDAR2C binding profile)	% 1 mM Glycine (NMDAR2C; NMDAR2C binding profile) [%]	Plasma stability, percent remaining after 60 minutes (Plasma stability, human) [%]	Conclusion (NMDAR2B; NMDAR2B binding profile)	% 1 mM Glycine (NMDAR2B; NMDAR2B binding profile) [%]	other results
CC(C)CN1CCC[C@]12CN([C@H](C(N)=O)[C@@H](C)O)C2=O [Compound A, (2S,3R)-3-hydroxy-2-((R)-5-isobutyl-1-oxo-2,5-diazaspiro[3.4]octan-2-yl)butanamide]	86	produced a mechanical analgesic effect	92	WT2A agonist	47.42	highly NR2A preferring	0.741	0.00457	0.65	0.19	42	lower oral bioavailability	a higher proportion is able to get to the CSF and brain	WT2C agonist	66.21	100	WT2B agonist	68.22	EC50 (NMDAR2C; NMDAR2C binding profile, wild-type): 1.51 nM; EC50 (NMDAR2B; NMDAR2B binding profile, wild-type): 3.09 nM
CC(C)CN1CCC[C@@]12CN([C@H](C(N)=O)[C@@H](C)O)C2=O [Compound B, (2S,3R)-3-hydroxy-2-((S)-5-isobutyl-1-oxo-2,5-diazaspiro[3.4]octan-2-yl)butanamide]	87	produced a mechanical analgesic effect	89	WT2A agonist	24.48	lower potency in NR2A and NR2C	0.712	0.977	0.7	0.18	38	lower oral bioavailability	a higher proportion is able to get to the CSF and brain	WT2C agonist	85.37	100	WT2B agonist	49.02	potentiation of [3H]MK-801 binding, subtype preference in words (NMDAR2C; NR2C, FIG. 6): lower potency in NR2A and NR2C; potentiation of [3H]MK-801 binding, subtype preference in words (NMDAR2B; NR2B, FIG. 6): highly NR2B and NR2D preferring
